Experiments:
Assay in all cases: CTG-3D luminescence at 96 h relative to day-0 seeding control (ratio to day 0); higher = more growth / less cytotoxicity; PDxO 3D drug screen, 96 h, CTG-3D normalised to day-0 seeding control.
[1] = test system: HCI-001 (organoid from a triple-negative breast cancer xenograft)
[2] = test system: HCI-002 (organoid from a triple-negative breast cancer xenograft)
[3] = test system: HCI-017.E2 (organoid from an ER-positive breast cancer xenograft)
[4] = test system: HCI-023 (organoid from a triple-negative breast cancer xenograft)
[5] = test system: MDA-MB-231

NC1(C(=O)N[C@@H](CCO)c2ccc(Cl)cc2)CCN(c2nc[nH]c3nccc2-3)CC1 [capivasertib]
CTG-3D luminescence at 96 h
Settings | 12.5 pM | 0.00025 µM | 0.005 µM | 0.1 µM | 1 µM | 10 µM | 100 µM | 625 fM
[1], days in culture: 240 | 1.55 | 0.986 | 1.1 | 0.601 | 0.604 | 0.407 | 0.382 | 1.02
[1], days in culture: 260 | 2.26 | 1.47 | 1.9 | 1.32 | 0.652 | 0.532 | 0.449 | 1.71
[1], days in culture: 269 | 1.69 | 1.5 | 1.82 | 1.34 | 0.734 | 0.758 | 0.593 | 1.71
[1], days in culture: 327 | 1.71 | 1.3 | 1.7 | 1.35 | 0.84 | 0.552 | 0.71 | 1.81
[1], days in culture: 346 | 1.49 | 1.36 | 1.35 | 1 | 0.937 | 0.678 | 0.809 | 1.33
[1], days in culture: 364 | 1.6 | 1.21 | 1.21 | 0.928 | 0.847 | 0.605 | 0.375 | 1.47
[2], days in culture: 62 | 2.82 | 2.61 | 2.83 | 2.56 | 2.34 | 2.26 | 0.503 | 2.99
[2], days in culture: 82 | 2.73 | 2.76 | 1.95 | 2.52 | 1.92 | 1.51 | 0.418 | 2.8
[2], days in culture: 91 | 4.24 | 3.84 | 3.7 | 3.73 | 2.94 | 3.16 | 1.6 | 4
[2], days in culture: 191 | 2.54 | 2.72 | 1.88 | 2.57 | 2.45 | 1.75 | 0.435 | 2.31
[2], days in culture: 209 | 2.44 | 2.32 | 2.31 | 1.92 | 1.96 | 1.45 | 0.402 | 2.39
[2], days in culture: 227 | 6.02 | 6.01 | 6.13 | 6.73 | 5.16 | 4.63 | 0.534 | 6.21
[3], days in culture: 85 | 2.33 | 2.6 | 2.77 | 2.3 | 1.44 | 0.794 | 0.118 | 2.69
[4], days in culture: 111 | 1.51 | 1.39 | 0.992 | 0.931 | 0.434 | 0.366 | 0.16 | 1.39
[4], days in culture: 128 | 1.4 | 1.63 | 1.43 | 1.22 | 0.571 | 0.658 | 0.277 | 1.75

CTG-3D luminescence at 96 h
Settings | 12.5 pM | 0.00025 µM | 0.005 µM | 0.1 µM | 1 µM | 10 µM | 100 µM | 625 fM
[3] | 1.91 | 2.1835 | 2.12 | 1.61 | 1.02 | 0.644 | 0.2237 | 2.12
[5] | 4.33 | 4.28 | 4.42 | 4.28 | 4.07 | 3.88 | 2.39 | 4.44

Cc1nc(-c2cn3c(n2)-c2ccc(-c4cnn(C(C)(C)C(N)=O)c4)cc2OCC3)n(C(C)C)n1 [taselisib]
CTG-3D luminescence at 96 h
Settings | 12.5 pM | 0.00025 µM | 0.005 µM | 0.1 µM | 1 µM | 10 µM | 100 µM | 625 fM
[1], days in culture: 240 | 1.68 | 0.982 | 1.07 | 0.482 | 0.567 | 0.383 | 0.093 | 1.22
[1], days in culture: 260 | 2.04 | 1.03 | 1.04 | 0.934 | 0.486 | 0.536 | 0.019 | 1.57
[1], days in culture: 269 | 1.61 | 1.56 | 1.43 | 1.21 | 0.629 | 0.576 | 0.0422 | 1.86
[1], days in culture: 327 | 1.4 | 1.39 | 1.7 | 1.66 | 0.874 | 0.542 | 0.213 | 1.84
[1], days in culture: 346 | 1.31 | 1.22 | 1.02 | 1.1 | 1.15 | 0.603 | 0.269 | 1.12
[1], days in culture: 364 | 1.5 | 1.06 | 1.37 | 0.786 | 0.791 | 0.737 | 0.0204 | 1.53
[2], days in culture: 62 | 2.78 | 2.75 | 2.69 | 2.06 | 1.75 | 1.12 | 0.0194 | 3.01
[2], days in culture: 82 | 2.76 | 2.9 | 2.23 | 2.39 | 1.79 | 1.08 | 0.0159 | 3.2
[2], days in culture: 91 | 3.66 | 3.28 | 2.4 | 2.4 | 1.64 | 1.32 | 0.0254 | 3.59
[2], days in culture: 191 | 2.84 | 2.45 | 2.55 | 2.13 | 2.1 | 0.981 | 0.137 | 2.84
[2], days in culture: 209 | 2.15 | 2.3 | 2.09 | 1.75 | 1.5 | 0.726 | 0.0139 | 2.45
[2], days in culture: 227 | 4.99 | 5.28 | 4.54 | 3.54 | 2.79 | 1.69 | 0.0558 | 5.91
[3], days in culture: 85 | 3.03 | 2.91 | 1.97 | 0.848 | 0.668 | 0.194 | 0.166 | 2.38
[4], days in culture: 111 | 1.53 | 1.41 | 1.4 | 0.966 | 0.707 | 0.842 | 0.0187 | 1.35
[4], days in culture: 128 | 1.9392 | 1.52 | 1.88 | 1.68 | 1.2 | 1.18 | 0.33 | 1.86

CTG-3D luminescence at 96 h
Settings | 12.5 pM | 0.00025 µM | 0.005 µM | 0.1 µM | 1 µM | 10 µM | 100 µM | 625 fM
[3] | 1.88 | 1.78 | 1.32 | 0.638 | 0.448 | 0.204 | 0.178 | 2.06
[5] | 4.54 | 4.45 | 4.53 | 4.29 | 3.9 | 2.97 | 1.22 | 4.58

O=C(c1ccc(F)c(F)c1Nc1ccc(I)cc1F)N1CC(O)([C@@H]2CCCCN2)C1 [cobimetinib]
CTG-3D luminescence at 96 h
Settings | 12.5 pM | 0.00025 µM | 0.005 µM | 0.1 µM | 1 µM | 10 µM | 100 µM | 625 fM
[1], days in culture: 240 | 1.59 | 1.08 | 1.09 | 1.08 | 1.32 | 0.812 | 0.00168 | 1.41
[1], days in culture: 260 | 2.44 | 1.15 | 1.46 | 1.28 | 1.58 | 1.5 | 0.00186 | 1.87
[1], days in culture: 269 | 1.48 | 1.58 | 1.56 | 1.49 | 1.26 | 1.83 | -0.00203 | 1.53
[1], days in culture: 327 | 1.36 | 1.44 | 1.72 | 1.75 | 1.43 | 1.04 | 0.00317 | 1.52
[1], days in culture: 346 | 1.24 | 1.22 | 1.07 | 1.14 | 1.13 | 1.22 | -7.73e-05 | 1.11
[1], days in culture: 364 | 1.35 | 1.27 | 1.3 | 0.986 | 0.9 | 0.905 | 0.000378 | 1.51
[2], days in culture: 62 | 2.96 | 2.54 | 2.87 | 1.97 | 1.32 | 0.777 | -0.0104 | 3.02
[2], days in culture: 82 | 3.18 | 3.07 | 2.39 | 1.88 | 1.72 | 0.519 | -0.0137 | 3.03
[2], days in culture: 91 | 3.83 | 3.46 | 2.9 | 2.74 | 1.55 | 0.722 | -0.0112 | 3.97
[2], days in culture: 191 | 2.68 | 2.52 | 2.54 | 1.88 | 1.67 | 0.799 | -0.00417 | 2.65
[2], days in culture: 209 | 2.44 | 2.32 | 2.11 | 1.78 | 1.43 | 0.589 | -0.00565 | 2.4
[2], days in culture: 227 | 5.23 | 5.25 | 4.79 | 4.53 | 2.78 | 1.04 | -0.0104 | 5.77
[3], days in culture: 85 | 3.27 | 2.34 | 2.34 | 2.15 | 1.65 | 2.15 | 0.017 | 2.45
[4], days in culture: 111 | 1.18 | 1.25 | 1.15 | 1.13 | 0.75 | 0.349 | -0.00131 | 1.06
[4], days in culture: 128 | 1.67 | 1.44 | 1.83 | 1.63 | 0.769 | 0.338 | -0.000598 | 1.65

CTG-3D luminescence at 96 h
Settings | 12.5 pM | 0.00025 µM | 0.005 µM | 0.1 µM | 1 µM | 10 µM | 100 µM | 625 fM
[3] | 1.77 | 2.11 | 2.18 | 1.89 | 1.889 | 1.57 | 0.00898 | 2.01
[5] | 4.37 | 4.46 | 4.46 | 3.88 | 2.4 | 1.24 | -0.00771 | 4.43

CC(C)n1nc(-c2ccc3oc(N)nc3c2)c2c(N)ncnc21 [sapanisertib]
CTG-3D luminescence at 96 h
Settings | 12.5 pM | 0.00025 µM | 0.005 µM | 0.1 µM | 1 µM | 10 µM | 100 µM | 625 fM
[1], days in culture: 240 | 1.65 | 0.951 | 0.588 | 0.395 | 0.551 | 0.311 | 0.187 | 1.12
[1], days in culture: 260 | 2.4 | 1.29 | 1.61 | 0.622 | 0.652 | 0.468 | 0.21 | 1.6
[1], days in culture: 269 | 1.45 | 1.79 | 1.19 | 0.45 | 0.559 | 0.643 | 0.22 | 1.56
[1], days in culture: 327 | 1.36 | 0.761 | 1.33 | 0.802 | 0.759 | 0.319 | 0.111 | 1.75
[1], days in culture: 346 | 1.38 | 1.32 | 1.09 | 0.528 | 0.577 | 0.315 | 0.15 | 1.13
[1], days in culture: 364 | 1.44 | 1.12 | 1.21 | 0.397 | 0.464 | 0.318 | 0.14 | 1.46
[2], days in culture: 62 | 2.83 | 2.68 | 2.7 | 0.903 | 0.579 | 0.418 | 0.0431 | 2.93
[2], days in culture: 82 | 3.4 | 3.17 | 2.04 | 0.983 | 0.633 | 0.403 | 0.0264 | 2.93
[2], days in culture: 91 | 4.16 | 3.41 | 2.81 | 1.44 | 0.846 | 0.697 | 0.0524 | 4.41
[2], days in culture: 191 | 2.25 | 2.71 | 2.07 | 1.04 | 0.718 | 0.443 | 0.0974 | 2.61
[2], days in culture: 209 | 2.41 | 2.26 | 2.27 | 0.676 | 0.446 | 0.209 | 0.0077 | 2.18
[2], days in culture: 227 | 5.28 | 4.74 | 4.01 | 1.33 | 0.801 | 0.598 | 0.0372 | 5.6
[3], days in culture: 85 | 2.96 | 2.53 | 2.39 | 0.979 | 0.43 | 0.202 | 0.141 | 2.59
[4], days in culture: 111 | 1.32 | 1.65 | 1.1 | 0.701 | 0.401 | 0.462 | 0.0354 | 1.44
[4], days in culture: 128 | 1.42 | 1.44 | 0.963 | 0.727 | 0.428 | 0.484 | 0.0623 | 1.75

CTG-3D luminescence at 96 h
Settings | 12.5 pM | 0.00025 µM | 0.005 µM | 0.1 µM | 1 µM | 10 µM | 100 µM | 625 fM
[3] | 1.69 | 2.18 | 1.703 | 0.694 | 0.493 | 0.251 | 0.126 | 2.02
[5] | 4.45 | 4.42 | 4.45 | 2.89 | 2.2 | 1.22 | 0.518 | 4.61

Reference: the supplement of paper PMC8882468
